Measurements reported in ChEMBL document CHEMBL1142347, “Synthesis and antibiotic activity of a small molecules library of 1,2,3-triazole derivatives” (2008).
Active and inactive are the calls of the source. The calls are words filed in the database; no cut-off is given here.

How the values were obtained:
Type in all cases: functional
[1] = test system: Staphylococcus aureus; assay: Growth inhibition of Staphylococcus aureus 1199B expressing NorA at 0.1 mg/ml after 24 hrs
[2] = test system: Staphylococcus aureus; assay: Growth inhibition of Staphylococcus aureus RN4220 expressing MsrA at 0.1 mg/ml after 24 hrs; details: for inhibition at 100 µg/mL: RN4220, 24 h
[3] = test system: Staphylococcus aureus; assay: Growth inhibition of Staphylococcus aureus 1199B expressing NorA at 0.1 mg/ml after 24 hrs in presence of 4 mg/L ciprofloxacin
[4] = test system: Staphylococcus aureus; assay: Growth inhibition of Staphylococcus aureus RN4220 expressing MsrA at 0.1 mg/ml after 24 hrs in presence of 16 mg/L erythromycin
[5] = test system: Staphylococcus aureus; assay: Growth inhibition of Staphylococcus aureus ATCC 25923 at 0.1 mg/ml after 24 hrs; details: for inhibition at 100 µg/mL: ATCC 25923, 24 h

Row | SMILES | inhibition at 100 µg/mL [1] | inhibition at 100 µg/mL [2] | Inhibition [3] | Inhibition [4] | Activity [5] | Activity [2] | Activity [3] | Activity [4] | inhibition at 100 µg/mL [5] | Activity [1]
1 | O=C1c2ccccc2C(=O)N1Cc1cn(-c2ccccc2)nn1 | 17% | 24% | 17% | 41% | inactive | – | – | – | – | –
2 | CCOC(OCC)c1cn(-c2cccnc2)nn1 | 6.3% | – | – | – | inactive | inactive | inactive | inactive | – | –
3 | CCOC(OCC)c1cn(Cc2ccccc2)nn1 | 6% | 19% | 8% | 28% | – | – | – | – | 32% | –
4 | CCOC(OCC)c1cn(-c2ccc(OC)cc2)nn1 | 11% | 9% | 71% | 25% | inactive | – | – | – | – | –
5 | c1ccc(Cn2cc(COc3ccccc3)nn2)cc1 | 21% | 32.7% | 20% | 43% | – | – | – | – | 12% | –
6 | COC(=O)c1cn(Cc2ccccc2)nn1 | 15% | 15% | 18% | 33% | – | – | – | – | 25% | –
7 | c1ccc(OCc2cn(-c3cccnc3)nn2)cc1 | 22% | 30% | 56% | 58% | – | – | – | – | 22% | –
8 | C=CCn1cc(COc2ccccc2)nn1 | 15% | 32% | 20% | 38% | – | – | – | – | 16% | –
9 | O=C1c2ccccc2C(=O)N1Cc1cn(Cc2ccccc2)nn1 | 57% | 30% | 36% | 44% | inactive | – | – | – | – | –
10 | O=C1c2ccccc2C(=O)N1Cc1cn(-c2cccnc2)nn1 | 22% | 46% | 26.6% | 71% | – | – | – | – | 24% | –
11 | C=CCn1cc(C(=O)OC)nn1 | 16% | 44% | 16% | 71% | – | – | – | – | 21% | –
12 | O=C1c2ccccc2C(=O)N1Cc1cn(-c2ccc([N+](=O)[O-])cc2)nn1 | 35% | 48.1% | 38% | 72% | – | – | – | – | 22% | –
13 | C=CCn1cc(CN2C(=O)c3ccccc3C2=O)nn1 | 18% | 33% | 23% | 36% | inactive | – | – | – | – | –
14 | CCOC(OCC)c1cn(-c2ccccc2)nn1 | – | – | – | – | inactive | inactive | inactive | inactive | – | inactive
15 | COc1ccc(-n2cc(COc3ccccc3)nn2)cc1 | 11% | 21% | 16% | 39% | – | – | – | – | 10% | –
16 | O=C(O)c1cn(-c2ccccc2)nn1 | 18% | 54% | 15% | 74.9% | inactive | – | – | – | – | –
17 | O=[N+]([O-])c1ccc(-n2cc(COc3ccccc3)nn2)cc1 | 18% | 34% | 24% | 56% | – | – | – | – | 27% | –
18 | COC(=O)c1cn(-c2cccnc2)nn1 | – | 11% | – | 78.3% | – | – | inactive | – | 16% | inactive
19 | CCCCCCCCn1cc(CN2C(=O)c3ccccc3C2=O)nn1 | 27.4% | 40% | 25% | 24% | inactive | – | – | – | – | –
20 | C=CCn1cc(C(=O)O)nn1 | – | – | 6% | – | inactive | inactive | – | inactive | – | inactive
21 | CCCCCCCCCCCCn1cc(CN2C(=O)c3ccccc3C2=O)nn1 | 40% | 43% | 45% | 65% | – | – | – | – | 20% | –
22 | c1ccc(OCc2cn(-c3ccccc3)nn2)cc1 | 11% | 11% | 26% | 41% | – | – | – | – | 31% | –
23 | OCc1cn(Cc2ccccc2)nn1 | 6% | – | – | – | – | inactive | inactive | inactive | 6.1% | –
24 | O=C(O)c1cn(-c2cccnc2)nn1 | 23% | 52.6% | 24% | 78% | – | – | – | – | 14% | –
25 | O=C(O)c1cn(Cc2ccccc2)nn1 | 8% | 31% | 9% | 22% | inactive | – | – | – | – | –
26 | COc1ccc(-n2cc(C(=O)O)nn2)cc1 | 21% | 38% | 24% | 45.8% | inactive | – | – | – | – | –
27 | C=CCn1cc(C(OCC)OCC)nn1 | – | 6% | – | 40% | – | – | inactive | – | 17% | inactive
28 | COc1ccc(-n2cc(CN3C(=O)c4ccccc4C3=O)nn2)cc1 | 15% | 24.1% | 18% | 48% | – | – | – | – | 24% | –
